The record followed here is patent US20020119178A1 (priority 2001, published 2002).

SMILES strings stand for the structures. Read-outs that look alike come from different tables or passages of the source. Starred links: 1 amine or outer side, 2 acyl side, 3 side chain; linkers in the order of their positions; H or OH if unused. Positions of bridges follow the written chain, without caps; N, C: chain ends. Non-standard residues stand in square brackets, D forms with d. Residues, ends and D or L forms follow the SMILES beside them. Chains are numbered I, II in the order given. Actinocin(9to1) = Cc1c2oc3c(C)ccc(C(=O)[*:1])c3nc-2c(C(=O)[*:2])c(N)c1=O; NMeV = CN[C@H](C(=O)O)C(C)C; Sar = CNCC(=O)O

For data set [1] the following is noted: for residual tritiated actinomycin D remaining on the discs following 8 days of elution: physiological medium. The protocol: In FIG. 1, the electrochemical cell 10 is a standard three-electrode setup. A saturated Calomel electrode (SCE) was used as the reference electrode 12 and the counter electrode 14 was a circular platinum foil (3 cm^2). A 316L stainless steel disk (0.8 cm^2 area) connected to a platinum wire 16 was used as the working electrode 18. The cell was filled with an aqueous electrodeposition solution composed of 5 mM sulfuric acid and 20 mM of an aryldiazonium-containing molecule as described in FIG. 2 for the cyclic voltammetry electrochemical process. The electrodeposition of the aryldiazonium onto the stainless steel device was applied using 2 consecutive cyclic scans ranging from −0.5 V to −1.75 V relatively to the SCE reference electrode. The current-voltage response was followed on a XY recorder. Following electrodeposition, the device was consecutively washed with water and acetonitrile to remove impurities.
FIG. 5 illustrates the necessity of the presence of a molecule containing a diazonium moiety to retain tritiated actinomycin D deposited on the surface of stainless steel 316L discs. In this experiment, stainless steel 316L discs, which are made out of the same material as the stainless steel stents and other endovascular devices, are either functionalized with 4-bromobenzenediazonium or left bare. The discs are then exposed to a solution containing 30 μg of tritiated actinomycin D whereas the solvent is acetonitrile or ethanol. Following dipping, the discs are left to dry at room temperature until the solvent evaporates. The discs are first washed in deionized water for 5 minutes followed by a 5-minute wash in a physiologic solution. The discs are then counted in a scintillation counter.
FIG. 6 illustrates the loading and retention capacity of tritiated actinomycin D immobilized as described previously onto stainless steel 316L discs, with the exception however that water was also used as solvent for immobilizing tritiated actinomycin D. Following immobilization, the discs were first washed for 5 minutes in deionized water followed by a 5-minute wash in a physiologic solution. The loading of tritiated actinomycin D onto the stainless steel discs varied according of the type of solvent used: acetonitrile>ethanol>water.
FIG. 7 illustrates the effect of varying concentrations of the 4-bromobenzenediazonium solution on the loading and retention of 30 μg of tritiated actinomycin D following 8 days of elution in a physiological medium. Stainless steel 316L discs were exposed to varying concentrations of 4-bromobenzenediazonium solution before electrodeposition with the set-up as described in FIG. 1. Actinomycin D loading in the ethanol solution increased 1.6 fold, from 4324±329 for […] to 7146±80 for 20 mM. […]

The subject of data set [2] is human saphenous vein smooth muscle cells (HSV-SMC). As to the kind of experiment: HSV-SMC proliferation assay (MTS), drugs at known concentrations. Format: cell-based. To be noted: read-out: IC50 (concentration at which the proliferation is reduced by 50%). How it is done: (§1) A proliferation assay was performed using human saphenous vein smooth muscle cells (HSV-SMC) with cells at passage 3-5. HSV-SMC were established in 96-well plates for 24 hours then serum starved for 48 hours. […] A positive control (100%) was set for cells exposed to DMEM supplemented with 20% FBS only while a negative control (0%) was set for cells exposed to only unsupplemented DMEM. Cells were stimulated for 72 hours with the anti-proliferative drug containing culture media. A solution of [3-(4,5-dimethylthiazol-2-yl)-5-(3-carboxymethoxyphenyl)-2-(4-sulfophenyl)-2H-tetrazolium](MTS, a cell proliferation marker) is then added onto the cells for 3 hours. Absorbance at 490 nm is recorded using a 96-well plate reader.

Data set [3] shares this test system. Format: cell-based. To be noted: bromobenzenediazonium coated discs only, no drug. The protocol:
as §1

[4] abbreviates: Homo sapiens, HSV-SMC passage 3-5, 20% FBS, 72 hours, MTS absorbance 490 nm.

For `Cc1c2oc3c(C)ccc(C(=O)N[C@@H]4C(=O)N[C@H](C(C)C)C(=O)N5CCC[C@H]5C(=O)N(C)CC(=O)N(C)[C@@H](C(C)C)C(=O)O[C@@H]4C)c3nc-2c(C(=O)N[C@@H]2C(=O)N[C@H](C(C)C)C(=O)N3CCC[C@H]3C(=O)N(C)CC(=O)N(C)[C@@H](C(C)C)C(=O)O[C@@H]2C)c(N)c1=O` [actinomycin D] (I: T[dV]P[Sar][NMeV] / II: T[dV]P[Sar][NMeV]; ester I:1-I:C, II:1-II:C; linker I:N-II:N via Actinocin(9to1)), the “residual tritiated actinomycin D remaining on the discs following 8 days of elution” value in data set [1] (0.02 mM 4-bromobenzenediazonium) amounted to 348±52; in data set [1] (20 mM 4-bromobenzenediazonium), 2539±43. For the same molecule, the “drug remaining on the discs after 10 days of elution” value in data set [1] (4-bromobenzenediazonium functionalized discs loaded with acetonitrile, physiological solution) was around 20%. In addition, in data set [1] (functionalized discs loaded with acetonitrile or ethanol), the “drug remaining on discs following 10 days of elution” value is on record as “substantial amounts”. Also, the IC50 in data set [2] (HSV-SMC passage 3-5, 20% FBS, 72 hours, MTS absorbance 490 nm) was found to be 81 pM.

Consider `COc1cccc2c1C(=O)c1c(O)c3c(c(O)c1C2=O)C[C@@](O)(C(=O)CO)C[C@@H]3O[C@H]1C[C@H](N)[C@H](O)[C@H](C)O1` [doxorubicin], for which the IC50 in data set [2] (setting [4]) came out at 8000 pM.

Consider `F[B-](F)(F)F.N#[N+]c1ccc(Br)cc1` [molecule 5, 4-bromobenzenediazonium tetrafluoroborate], for which the “effect of elution on cell proliferation” value in data set [3] is “does not inhibit cell proliferation”.

Consider `CC(=O)O[C@H]1C(=O)[C@@]2(C)[C@H]([C@H](OC(=O)c3ccccc3)[C@]3(O)C[C@H](OC(=O)[C@H](O)[C@@H](NC(=O)c4ccccc4)c4ccccc4)C(C)=C1C3(C)C)[C@]1(OC(C)=O)CO[C@@H]1C[C@@H]2O` [paclitaxel], for which, in data set [2] (setting [4]), the IC50 amounted to 48000 pM.

For the molecule `CO[C@H]1C[C@@H]2CC[C@@H](C)[C@@](O)(O2)C(=O)C(=O)N2CCCC[C@H]2C(=O)O[C@H]([C@H](C)C[C@@H]2CC[C@@H](O)[C@H](OC)C2)CC(=O)[C@H](C)/C=C(\C)[C@@H](O)[C@@H](OC)C(=O)[C@H](C)C[C@H](C)/C=C/C=C/C=C/1C` [rapamycin], the IC50 in data set [2] (Homo sapiens, 72 h) was 120 pM.

With `CC[C@]1(O)C[C@@H]2CN(CCc3c([nH]c4ccccc34)[C@@](C(=O)OC)(c3cc4c(cc3OC)N(C)[C@H]3[C@@](O)(C(=O)OC)[C@H](OC(C)=O)[C@]5(CC)C=CCN6CC[C@]43[C@@H]65)C2)C1` [vinblastine], the IC50 in data set [2] (setting [4]) amounted to 740 pM.

As to `CC[C@]1(O)C[C@H]2CN(CCc3c([nH]c4ccccc34)[C@@](C(=O)OC)(c3cc4c(cc3OC)N(C=O)[C@H]3[C@@](O)(C(=O)OC)[C@H](OC(C)=O)[C@]5(CC)C=CCN6CC[C@]43[C@@H]65)C2)C1` [vincristine], the IC50 in data set [2] (Homo sapiens, 72 h) amounted to 820 pM.
